Experiments:
[1] = tested on: RERF-LC-Sq1 (Squamous Cell Lung Carcinoma); experiment: Bliss excess, mean over the matrix (fraction); higher = more synergy
In short: (§1)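 Cell lines grown in DMEM/F12 or RPMI with 10% FBS were plated in 1536-well plates and held 24 hours at 37°C, 5% CO2 before 72 hours of exposure to two-drug dose matrices, with DMSO typically at 0.2%. CellTiter-Glo 2.0 luminescence gave viability, which was converted to inhibition. Vehicle wells were set to 0 and blank wells to 1. Combination Emax is the second-highest inhibition in the matrix, and Bliss excess is the observed combination effect minus the expected EA + EB − EA·EB, where EA and EB are the single-agent effects.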

[2] = tested on: WM793B (Melanoma); experiment: as above
In short: as §1

[3] = tested on: HSC-39 (Gastric Carcinoma); experiment: as above
In short: as §1

[4] = tested on: CAL-62 (Thyroid Gland Carcinoma); experiment: as above
In short: as §1

[5] = tested on: LXF-289 (Lung Adenocarcinoma); experiment: as above
In short: as §1

[6] = tested on: MKN45 (Gastric Carcinoma); experiment: as above
In short: as §1

[7] = tested on: A2058 (Melanoma); experiment: as above
In short: as §1

[8] = tested on: IST-MES1 (Mesothelioma); experiment: as above
In short: as §1

[9] = tested on: RCM-1 (Colorectal Carcinoma); experiment: as above
In short: as §1

[10] = tested on: RKN (Other Solid Carcinomas); experiment: as above
In short: as §1

[11] = tested on: HEC-1 (Endometrial Carcinoma); experiment: as above
In short: as §1

[12] = tested on: KE-37 (T-Lymphoblastic Leukemia); experiment: as above
In short: as §1

[13] = tested on: GP5d (Colorectal Carcinoma); experiment: as above
In short: as §1

[14] = tested on: CAL-120 (Breast Carcinoma); experiment: as above
In short: as §1

[15] = tested on: NCI-H23 (Lung Adenocarcinoma); experiment: as above
In short: as §1

[16] = tested on: HCT-15 (Colorectal Carcinoma); experiment: as above
In short: as §1

[17] = tested on: SF539 (Glioblastoma); experiment: as above
In short: as §1

[18] = tested on: RERF-LC-Sq1 (Squamous Cell Lung Carcinoma); experiment: combination Emax (second highest fraction inhibited in the dose matrix, 72 h); higher = more inhibition; extreme values may be limits of the assay
In short: as §1

[19] = tested on: CAL-120 (Breast Carcinoma); experiment: as above
In short: as §1

[20] = tested on: LB996-RCC (Kidney Carcinoma); experiment: as above
In short: as §1
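Throughout, for Bliss excess, mean over the matrix: after 72 h of two-drug dosing.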

| Compound | Bliss excess [1] | Bliss excess [2] | Bliss excess [3] | Bliss excess [4] | Bliss excess [5] | Bliss excess [6] | Bliss excess [7] | Bliss excess [8] | Bliss excess [9] | Bliss excess [10] | Bliss excess [11] | Bliss excess [12] | Bliss excess [13] | Bliss excess [14] | Bliss excess [15] | Bliss excess [16] | Bliss excess [17] | combination Emax [18] | combination Emax [19] | combination Emax [20] |
| --- | --- | --- | --- | --- | --- | --- | --- | --- | --- | --- | --- | --- | --- | --- | --- | --- | --- | --- | --- | --- |
| Cc1cc2ncnn2cc1Nc1ncc2c(n1)n(C1CCOCC1)c(=O)n2C [AZD7648] + C[C@@H]1COCCN1C2=NC(=NC(=C2)C3(CC3)[S@](=N)(=O)C)C4=C5C=CNC5=NC=C4 [AZD6738] (first compound max 10 µM, 7x7, partner max 10 µM) | -0.0231 | -0.0352 | 0.0166 | 0.0264 | 0.0315 | -0.0406 | 0.024 | 0.0176 | 0.0223 | 0.0086 | -0.0339 | 0.0286 | -0.0401 | 0.0192 | -0.0617 | -0.0312 | -0.0166 | 0.804 | 0.325 | 0.668 |
| Cc1cc2ncnn2cc1Nc1ncc2c(n1)n(C1CCOCC1)c(=O)n2C [AZD7648] + O=C(c1cc(Cc2n[nH]c(=O)c3ccccc23)ccc1F)N1CCN(C(=O)C2CC2)CC1 [Olaparib] (first compound max 10 µM, 7x7, partner max 10 µM) | -0.0095 | -0.0136 | -0.0083 | -0.03 | -0.0504 | -0.0106 | -0.0319 | -0.0592 | -0.0789 | -0.021 | 0.0079 | 0.0309 | 0.0009 | -0.0322 | -0.0059 | 0.0666 | -0.0236 | 0.314 | 0.149 | 0.423 |
| NC1(C(=O)N[C@@H](CCO)c2ccc(Cl)cc2)CCN(c2ncnc3[nH]ccc23)CC1 [Capivasertib] + CC(=O)c1c(C)c2cnc(Nc3ccc(N4CCNCC4)cn3)nc2n(C2CCCC2)c1=O [Palbociclib] (first compound max 10 µM, 7x7, partner max 10 µM) | 0.0352 | -0.0375 | 0.0906 | 0.0169 | 0.0199 | 0.0256 | -0.0001 | -0.0632 | -0.0058 | -0.0803 | -0.0115 | 0.0024 | -0.018 | -0.0221 | 0.008 | 0.0152 | -0.0486 | 0.873 | 0.561 | 0.781 |
| NC1(C(=O)N[C@@H](CCO)c2ccc(Cl)cc2)CCN(c2ncnc3[nH]ccc23)CC1 [Capivasertib] + CC(C)n1c(=O)n(C)c2cnc3cc(F)c(-c4ccc(OCCCN5CCCCC5)nc4)cc3c21 [AZD1390] (first compound max 10 µM, 7x7, partner max 0.3 µM) | -0.0655 | -0.0826 | 0.0112 | -0.0389 | -0.0825 | -0.0646 | -0.0336 | -0.0553 | -0.0274 | -0.0477 | -0.0453 | -0.0392 | -0.0843 | -0.086 | -0.0484 | -0.036 | -0.0528 | 0.841 | 0.454 | 0.645 |
| NC1(C(=O)N[C@@H](CCO)c2ccc(Cl)cc2)CCN(c2ncnc3[nH]ccc23)CC1 [Capivasertib] + CCN(CCO)CCCOc1ccc2c(Nc3cc(CC(=O)Nc4cccc(F)c4)[nH]n3)ncnc2c1 [AZD2811] (first compound max 10 µM, 7x7, partner max 1 µM) | 0.0072 | 0.002 | -0.0799 | 0.0437 | 0.0856 | 0.0383 | 0.0072 | -0.0427 | -0.0426 | -0.0711 | 0.016 | 0.0084 | -0.0899 | 0.0165 | 0.0232 | -0.0021 | -0.0573 | 0.892 | 0.49 | 0.71 |
| NC1(C(=O)N[C@@H](CCO)c2ccc(Cl)cc2)CCN(c2ncnc3[nH]ccc23)CC1 [Capivasertib] + COc1nnc2ccc(N3CCC(c4ccc(OCCN5CCN(C)C(=O)[C@H]5C)cc4)CC3)nn12 [AZD5153] (first compound max 10 µM, 7x7, partner max 1 µM) | 0.0617 | -0.0115 | 0.0142 | -0.0078 | 0.0995 | -0.0587 | 0.0597 | -0.0264 | 0.0153 | -0.0451 | 0.0143 | -0.045 | 0.0292 | 0.101 | -0.0038 | 0.0306 | 0.0157 | 1 | 0.647 | 0.72 |
| NC1(C(=O)N[C@@H](CCO)c2ccc(Cl)cc2)CCN(c2ncnc3[nH]ccc23)CC1 [Capivasertib] + C[C@@H]1COCCN1C2=NC(=NC(=C2)C3(CC3)[S@](=N)(=O)C)C4=C5C=CNC5=NC=C4 [AZD6738] (first compound max 10 µM, 7x7, partner max 10 µM) | -0.0719 | -0.0919 | -0.0181 | -0.0306 | -0.0889 | -0.0553 | -0.0262 | 0.0194 | -0.0863 | -0.124 | -0.0205 | -0.0061 | -0.103 | -0.0283 | -0.0434 | -0.0104 | -0.0125 | 0.873 | 0.708 | 0.823 |
| NC1(C(=O)N[C@@H](CCO)c2ccc(Cl)cc2)CCN(c2ncnc3[nH]ccc23)CC1 [Capivasertib] + Cn1cnc2c(F)c(Nc3ccc(Br)cc3Cl)c(C(=O)NOCCO)cc21 [Selumetinib] (first compound max 10 µM, 7x7, partner max 10 µM) | 0.0005 | 0.0402 | 0.2 | 0.0695 | 0.0075 | -0.0478 | 0.108 | 0.0018 | 0.019 | 0.0373 | 0.0234 | 0.0803 | -0.0427 | 0.0219 | 0.0101 | 0.0387 | -0.0225 | 0.917 | 0.444 | 0.678 |
| Cc1nc(Nc2ncc(C(=O)Nc3c(C)cccc3Cl)s2)cc(N2CCN(CCO)CC2)n1 [Dasatinib] + CC(=O)Nc1cccc(-n2c(=O)n(C3CC3)c(=O)c3c(Nc4ccc(I)cc4F)n(C)c(=O)c(C)c32)c1 [Trametinib] (first compound max 2 µM, 7x7, partner max 1 µM) | -0.179 | -0.0015 | -0.0706 | 0.163 | -0.0439 | -0.0069 | 0.005 | 0.0328 | 0.018 | 0.0011 | 0.0095 | -0.0125 | -0.0254 | 0.032 | 0.0225 | 0.0847 | -0.0177 | 0.562 | 0.525 | 0.893 |
| COc1cccc2c1C(=O)c1c(O)c3c(c(O)c1C2=O)C[C@@](O)(C(=O)CO)C[C@@H]3O[C@H]1C[C@H](N)[C@H](O)[C@H](C)O1 [Doxorubicin] + Cc1cc2ncnn2cc1Nc1ncc2c(n1)n(C1CCOCC1)c(=O)n2C [AZD7648] (first compound max 1 µM, 7x7, partner max 10 µM) | 0.0444 | 0.0438 | 0.0909 | 0.0885 | 0.0233 | 0.0162 | 0.0185 | 0.0455 | 0.0199 | 0.0697 | 0.004 | 0.0912 | 0.081 | 0.0064 | 0.0413 | 0.0644 | 0.0403 | 0.627 | 0.47 | 0.796 |
| COc1cc2ncnc(Nc3ccc(F)c(Cl)c3)c2cc1OCCCN1CCOCC1 [Gefitinib] + CC(C)n1c(=O)n(C)c2cnc3cc(F)c(-c4ccc(OCCCN5CCCCC5)nc4)cc3c21 [AZD1390] (first compound max 10 µM, 7x7, partner max 0.3 µM) | -0.0938 | -0.0816 | 0.0185 | -0.0451 | -0.0717 | -0.046 | -0.0343 | -0.0524 | -0.0395 | -0.0646 | -0.0442 | -0.0791 | -0.0359 | -0.0446 | -0.0466 | -0.0533 | -0.0347 | 0.543 | 0.14 | 0.391 |
| CS(=O)(=O)CCNCc1ccc(-c2ccc3ncnc(Nc4ccc(OCc5cccc(F)c5)c(Cl)c4)c3c2)o1 [Lapatinib] + C[C@@H](Oc1cc(-c2cnn(C3CCNCC3)c2)cnc1N)c1c(Cl)ccc(F)c1Cl [Crizotinib] (first compound max 10 µM, 7x7, partner max 10 µM) | -0.039 | -0.0192 | -0.0117 | -0.0436 | -0.0848 | -0.0063 | -0.0237 | -0.0937 | -0.0107 | -0.05 | -0.021 | 0.0236 | -0.0036 | 0.0084 | -0.0265 | -0.0205 | -0.0621 | 0.949 | 0.734 | 0.98 |
| CC(=O)c1c(C)c2cnc(Nc3ccc(N4CCNCC4)cn3)nc2n(C2CCCC2)c1=O [Palbociclib] + CC1(C)CCC(CN2CCN(c3ccc(C(=O)NS(=O)(=O)c4ccc(NCC5CCOCC5)c([N+](=O)[O-])c4)c(Oc4cnc5[nH]ccc5c4)c3)CC2)=C(c2ccc(Cl)cc2)C1 [Venetoclax] (first compound max 10 µM, 7x7, partner max 1 µM) | 0.0475 | 0.0241 | -0.0476 | -0.029 | -0.0189 | -0.0481 | -0.0231 | -0.0203 | -0.0717 | -0.0841 | -0.0489 | 0.0258 | -0.011 | -0.0523 | -0.0199 | 0.0105 | -0.0164 | 0.436 | 0.134 | 0.318 |
| CC(=O)c1c(C)c2cnc(Nc3ccc(N4CCNCC4)cn3)nc2n(C2CCCC2)c1=O [Palbociclib] + Cc1c2c(nn1C)CSCc1cc(n(C)n1)CSc1cc(c3ccccc3c1)OCCCc1c(C(=O)O)n(C)c3c-2c(Cl)ccc13 [AZD5991] (first compound max 10 µM, 7x7, partner max 1 µM) | -0.0228 | -0.0134 | -0.0383 | -0.0047 | 0.008 | -0.0556 | 0.0085 | -0.0111 | -0.0561 | -0.0557 | -0.0336 | 0.0783 | -0.069 | -0.0209 | -0.0562 | 0.0011 | -0.0637 | 0.594 | 0.134 | 0.397 |
